Results reported in patent US20120208827A1, “BENZIMIDAZOLES AS FATTY ACID SYNTHASE INHIBITORS” (GlaxoSmithKline LLC, priority 2009, published 2012).

Biological target: FAS (Homo sapiens, UniProt P49327)
Test: FAS assay (Assay #1 residual NADPH detection or Assay #2 CoA detection with thio-reactive coumarin dye)
Assay type: biochemical
Details: tested generally according to the assays described (Assay #1 or #2); in at least one experimental run; read-out: pIC50 value (inhibition of FAS) (converted)
Description: FAS activity was measured through one of the two following assays.
Inhibition of FAS activity can be measured based on the detection of residual NADPH substrate after the FAS assay is quenched. This assay is run as a 10 μL endpoint assay in 384-well format, where the reaction contains 20 μM malonyl-CoA, 2 μM acetyl-CoA, 30 μM NADPH and 40 nM FAS in 50 mM sodium phosphate, pH 7.0. The assay is run by sequentially dispensing 5 μl of a malonyl-CoA solution, then enzyme solution (containing the acetyl-CoA, and NADPH) into a black, low volume assay plate (Greiner 784076) pre-dispensed with […] compound solutions in DMSO. The reaction is incubated at ambient temperature for 60 minutes, then quenched with 5 μL of a developing solution composed of 90 μM resazurin, 0.3 IU/ml diaphorase in 50 mM sodium phosphate, pH 7.0. The developed reaction is read on a Molecular Devices Analyst or Acquest (or equivalent) plate reader using a 530 nm excitation wavelength filter, a 580 nm emission filter, and 561 nm dichroic filter. The test compounds are prepared in neat DMSO at a concentration of 10 mM. For inhibition curves, compounds are diluted using a three-fold serial dilution and tested at 11 concentrations (e.g. 25 μM-0.42 nM). Curves are analysed using ActivityBase and XLfit, and results are expressed as pIC50 values.
Inhibition of FAS can also be quantified based on the detection of the CoA products with a thio-reactive coumarin dye. This assay is run as a 10 μL endpoint assay in 384-well format, where the reaction contains 20 μM malonyl-CoA, 20 μM acetyl-CoA, 40 μM NADPH and 2 nM FAS in 50 mM sodium phosphate, pH 7.0, and 0.04% Tween-20. The assay is run by adding 5 μL enzyme solution to a black, low volume assay plate (Greiner 784076) pre-dispensed with 100 nl compound solutions in DMSO. After 30 minutes, […] substrate is added, and the reaction incubated at ambient temperature for an additional 60 minutes. The reaction is then quenched with 10 μL of 6M guanidine-HCl containing 50 μM CPM (7-diethylamino-3-(4′-maleimidylphenyl)-4-methylcoumarin (CPM; thio-reactive dye), and incubated for 30 minutes. The plate is read on an Envision (PerkinElmer) or equivalent plate reader using a 380 nm excitation wavelength filter, and a 486 nm emission filter. Data fitting and compound preparations are done as described above.

Sequence of FAS (P49327 whole entry): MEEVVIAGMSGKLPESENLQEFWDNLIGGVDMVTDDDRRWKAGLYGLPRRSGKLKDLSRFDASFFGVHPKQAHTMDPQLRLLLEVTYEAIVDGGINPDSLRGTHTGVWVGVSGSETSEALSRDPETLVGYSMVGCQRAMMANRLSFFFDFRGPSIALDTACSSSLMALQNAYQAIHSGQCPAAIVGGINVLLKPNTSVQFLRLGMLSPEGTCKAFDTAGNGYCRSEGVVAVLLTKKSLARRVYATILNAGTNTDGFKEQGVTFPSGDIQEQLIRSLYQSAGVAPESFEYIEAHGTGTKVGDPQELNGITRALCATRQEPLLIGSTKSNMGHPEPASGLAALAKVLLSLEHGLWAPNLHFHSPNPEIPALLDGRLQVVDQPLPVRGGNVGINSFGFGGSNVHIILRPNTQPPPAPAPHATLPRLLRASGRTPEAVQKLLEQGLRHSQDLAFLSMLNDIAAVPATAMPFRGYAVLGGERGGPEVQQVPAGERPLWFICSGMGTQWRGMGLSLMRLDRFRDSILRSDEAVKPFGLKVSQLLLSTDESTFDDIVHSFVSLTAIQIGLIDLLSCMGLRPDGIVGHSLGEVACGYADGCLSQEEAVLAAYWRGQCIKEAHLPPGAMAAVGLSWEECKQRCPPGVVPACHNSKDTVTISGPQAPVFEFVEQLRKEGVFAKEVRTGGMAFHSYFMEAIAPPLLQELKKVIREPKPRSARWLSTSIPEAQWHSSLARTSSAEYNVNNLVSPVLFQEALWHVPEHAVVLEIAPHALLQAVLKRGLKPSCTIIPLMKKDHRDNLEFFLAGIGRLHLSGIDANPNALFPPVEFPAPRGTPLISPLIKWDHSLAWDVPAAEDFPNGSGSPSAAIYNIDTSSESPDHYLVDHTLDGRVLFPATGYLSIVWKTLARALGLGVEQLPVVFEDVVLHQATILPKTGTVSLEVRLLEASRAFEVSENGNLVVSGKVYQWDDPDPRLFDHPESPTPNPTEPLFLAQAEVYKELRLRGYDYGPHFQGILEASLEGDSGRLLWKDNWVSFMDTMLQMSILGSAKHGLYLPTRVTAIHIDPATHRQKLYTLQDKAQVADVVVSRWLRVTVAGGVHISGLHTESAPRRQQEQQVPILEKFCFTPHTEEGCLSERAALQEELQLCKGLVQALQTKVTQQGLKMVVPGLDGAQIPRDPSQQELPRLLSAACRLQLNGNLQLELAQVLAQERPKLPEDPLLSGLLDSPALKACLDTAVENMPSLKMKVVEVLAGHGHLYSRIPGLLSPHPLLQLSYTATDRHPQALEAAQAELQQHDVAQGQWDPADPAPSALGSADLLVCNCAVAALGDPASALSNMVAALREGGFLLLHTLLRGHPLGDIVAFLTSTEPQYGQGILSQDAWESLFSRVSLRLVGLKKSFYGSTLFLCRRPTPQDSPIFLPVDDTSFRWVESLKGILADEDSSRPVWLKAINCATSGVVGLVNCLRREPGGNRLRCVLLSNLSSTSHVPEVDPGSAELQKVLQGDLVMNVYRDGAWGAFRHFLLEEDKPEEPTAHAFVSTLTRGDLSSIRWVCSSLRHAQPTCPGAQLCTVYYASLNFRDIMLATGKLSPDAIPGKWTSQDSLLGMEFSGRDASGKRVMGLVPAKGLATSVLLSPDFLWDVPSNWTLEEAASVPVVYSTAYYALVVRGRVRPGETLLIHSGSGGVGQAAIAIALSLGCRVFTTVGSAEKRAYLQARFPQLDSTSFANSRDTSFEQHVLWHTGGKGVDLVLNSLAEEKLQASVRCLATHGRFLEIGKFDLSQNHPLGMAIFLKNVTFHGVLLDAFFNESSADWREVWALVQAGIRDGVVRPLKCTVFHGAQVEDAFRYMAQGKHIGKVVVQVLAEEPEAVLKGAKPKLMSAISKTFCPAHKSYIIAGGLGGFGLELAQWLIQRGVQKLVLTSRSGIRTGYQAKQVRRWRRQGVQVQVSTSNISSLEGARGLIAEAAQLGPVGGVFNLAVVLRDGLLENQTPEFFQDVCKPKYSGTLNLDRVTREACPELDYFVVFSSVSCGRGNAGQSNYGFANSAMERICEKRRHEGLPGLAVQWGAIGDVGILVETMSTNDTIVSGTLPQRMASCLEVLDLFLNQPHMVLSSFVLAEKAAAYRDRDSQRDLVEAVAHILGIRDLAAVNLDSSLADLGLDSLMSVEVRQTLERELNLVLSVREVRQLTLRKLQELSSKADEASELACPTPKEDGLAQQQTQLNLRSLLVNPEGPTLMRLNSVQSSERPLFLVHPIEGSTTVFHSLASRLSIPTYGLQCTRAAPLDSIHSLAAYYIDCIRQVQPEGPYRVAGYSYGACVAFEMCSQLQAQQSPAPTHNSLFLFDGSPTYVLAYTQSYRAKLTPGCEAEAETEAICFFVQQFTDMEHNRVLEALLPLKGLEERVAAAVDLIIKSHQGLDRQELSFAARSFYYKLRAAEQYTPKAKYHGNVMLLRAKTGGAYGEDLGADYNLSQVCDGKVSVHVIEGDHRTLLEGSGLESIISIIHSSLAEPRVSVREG

| IC50 [nM] | SMILES |
| --- | --- |
| 49 | O=C(C1CC1)N1CC[C@@H](Cn2c(-c3ccc(-c4ccc5cc[nH]c5c4)cc3)nc3c(C(F)(F)F)cccc32)C1 [Example 24, 1-{[(3S)-1-(Cyclopropylcarbonyl)-3-pyrrolidinyl]methyl}-2-[4-(1H-indol-6-yl)phenyl]-4-(trifluoromethyl)-1H-benzimidazole] |
| 135 | O=C(C1CC1)N1CC[C@@H](Cn2c(-c3ccc(-c4ccccc4)cc3)nc3c(Br)cccc32)C1 [Example 33, 2-(4-Biphenylyl)-4-bromo-1-{[(3S)-1-(cyclopropylcarbonyl)-3-pyrrolidinyl]methyl}-1H-benzimidazole] |
| 26.9 | Cc1ccc2c(c1)nc(-c1ccc(-c3ccc4[nH]ncc4c3)cc1)n2C[C@@H]1CCN(C(=O)C2CC2)C1 [Example 49, 5-[4-(1-{[(3S)-1-(Cyclopropylcarbonyl)-3-pyrrolidinyl]methyl}-5-methyl-1H-benzimidazol-2-yl)phenyl]-1H-indazole] |
| 30.9 | O=C(C1CC1)N1CC[C@@H](Cn2c(-c3ccc(-c4ccc5[nH]ccc5c4)cc3)nc3cc(C(F)(F)F)ccc32)C1 [Example 62, 1-{[(3S)-1-(Cyclopropylcarbonyl)-3-pyrrolidinyl]methyl}-2-[4-(1H-indol-5-yl)phenyl]-5-(trifluoromethyl)-1H-benzimidazole] |
| 21.9 | COc1ccc2nc(-c3ccc(-c4ccc5cc[nH]c5c4)cc3)n(C[C@@H]3CCN(C(=O)C4CC4)C3)c2c1 [Example 66, 1-{[(3S)-1-(Cyclopropylcarbonyl)-3-pyrrolidinyl]methyl}-2-[4-(1H-indol-6-yl)phenyl]-6-(methyloxy)-1H-benzimidazole] |
| 50.1 | Cc1ccc2nc(-c3ccc(-c4ccc5occc5c4)cc3)n(C[C@@H]3CCN(C(=O)C4CC4)C3)c2c1 [Example 83, 2-[4-(1-Benzofuran-5-yl)phenyl]-1-{[(3S)-1-(cyclopropylcarbonyl)-3-pyrrolidinyl]methyl}-6-(methyl)-1H-benzimidazole] |

The next lines start with the compound.

| SMILES | IC50 [nM] |
| --- | --- |
| O=C(C1CC1)N1CC[C@@H](Cn2c(-c3ccc(-c4ccc5ncsc5c4)cc3)nc3ccccc32)C1 [Example 4, 6-[4-(1-{[(3S)-1-(Cyclopropylcarbonyl)-3-pyrrolidinyl]methyl}-1H-benzimidazol-2-yl)phenyl]-1,3-benzothiazole] | 55 |
| O=C(C1CC1)N1CC[C@@H](Cn2c(-c3ccc(-c4ccc5cc[nH]c5c4)cc3)nc3ccc(C(F)(F)F)cc32)C1 [Example 88, 1-{[(3S)-1-(Cyclopropylcarbonyl)-3-pyrrolidinyl]methyl}-2-[4-(1H-indol-6-yl)phenyl]-6-(trifluoromethyl)-1H-benzimidazole] | 43.7 |
| CN1CCN(C(=O)c2ccc3nc(-c4ccc(-c5ccc6cc[nH]c6c5)cc4)n(C[C@@H]4CCN(C(=O)C5CC5)C4)c3c2)CC1 [Example 106, 1-{[(3S)-1-(Cyclopropylcarbonyl)-3-pyrrolidinyl]methyl}-2-[4-(1H-indol-6-yl)phenyl]-6-[(4-methyl-1-piperazinyl)carbonyl]-1H-benzimidazole] | 55 |
| CN1CCN(C(=O)c2ccc3nc(-c4ccc(-c5ccc6[nH]ccc6c5)cc4)n(C[C@@H]4CCN(C(=O)C5CC5)C4)c3c2)CC1 [Example 107, 1-{[(3S)-1-(Cyclopropylcarbonyl)-3-pyrrolidinyl]methyl}-2-[4-(1H-indol-5-yl)phenyl]-6-[(4-methyl-1-piperazinyl)carbonyl]-1H-benzimidazole] | 10 |
| O=C(C1CC1)N1CC[C@@H](Cn2c(-c3ccc(-c4ccc(F)cc4)cc3)nc3cccc(C(F)(F)F)c32)C1 [Example 117, 1-{[(3S)-1-(Cyclopropylcarbonyl)-3-pyrrolidinyl]methyl}-2-(4′-fluoro-4-biphenylyl)-7-(trifluoromethyl)-1H-benzimidazole] | 1450 |
